Eleven compounds from patent US20120244120A1, “INHIBITORS OF HEMOPOIETIC CELL KINASE (P59-HCK) AND THEIR USE IN THE TREATMENT OF INFLUENZA INFECTION” (priority 2009, published 2012) can be followed below.

In series [1] the test system is influenza (H1N1A/PR/8/34). The experiment in a line: microbe, parasite or virus in culture. It counts as cell-based.
For series [2], the system named is influenza (H3N1 Memphis 71). The settings on record: mouse, in vivo.
For series [3], the target named is p38 MAPKα (MAPK14) (Homo sapiens, UniProt Q16539). The experiment in a line: p38α enzyme assay (Z'-LYTE FRET, via MAPKAP-K2 activation). The note with it: 2 hr pre-incubation, ATP 10 μM. It counts as biochemical.
The target in series [4] is HCK enzyme (Homo sapiens, UniProt P08631). The experiment in a line: HCK enzyme assay (Z'-LYTE FRET). The format is biochemical. The settings on record: 2 hr pre-incubation, ATP 15 μM.
For series [5], the target named is c-Src enzyme (Homo sapiens, UniProt P12931). As to the kind of experiment: c-Src enzyme assay (Z'-LYTE FRET). The note with it: ATP 200 μM. It counts as biochemical.
Series [6] has as its system MDCK cells. The experiment in a line: MTT assay (MDCK cells). The settings on record: final concentration of 10 μg/mL. The format is cell-based, canine. On the technique in general: Tetrazolium dyes change colour on reduction, which living cells bring about.
Procedure: The cells were then washed with 10% FCS DMEM, and incubated in 10% FCS DMEM containing 0.25 mg/mL MTT for 2 hr. The media were then removed, 200 μL of DMSO added to each well and the plates were shaken lightly for 1 hr prior to reading the absorbance at 550 nm.
The mark [7] stands for this setting: Influenza A virus, MDCK, read-out: IC50 (nM) Influenza-Induced CPE.
Where [8] appears, read: Influenza A virus; MDCK cells, H1N1 A/PR/8/34, MOI 0.1; non-linear regression; read-out: IC50 (nM) Influenza-Induced CPE.
Where [9] appears, read: MDCK; read-out: IC50 (nM) Influenza-Induced CPE.

Marks after values point to notes of the source that are not given here.

HCK enzyme, sequence (P08631 22-526): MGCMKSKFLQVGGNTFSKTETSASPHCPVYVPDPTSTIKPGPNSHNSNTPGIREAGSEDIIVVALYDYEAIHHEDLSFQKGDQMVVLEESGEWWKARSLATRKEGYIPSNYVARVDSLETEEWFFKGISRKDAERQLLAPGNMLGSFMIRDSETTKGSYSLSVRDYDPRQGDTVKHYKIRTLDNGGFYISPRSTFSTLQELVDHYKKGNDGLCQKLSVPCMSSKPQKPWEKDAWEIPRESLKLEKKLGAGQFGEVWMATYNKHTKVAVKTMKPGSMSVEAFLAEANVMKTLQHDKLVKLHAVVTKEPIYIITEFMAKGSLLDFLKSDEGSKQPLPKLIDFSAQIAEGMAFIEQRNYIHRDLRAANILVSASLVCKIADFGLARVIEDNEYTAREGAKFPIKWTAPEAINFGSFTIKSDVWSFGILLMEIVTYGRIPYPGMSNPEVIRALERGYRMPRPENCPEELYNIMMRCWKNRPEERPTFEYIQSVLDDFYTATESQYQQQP
c-Src enzyme, sequence (P12931 whole entry): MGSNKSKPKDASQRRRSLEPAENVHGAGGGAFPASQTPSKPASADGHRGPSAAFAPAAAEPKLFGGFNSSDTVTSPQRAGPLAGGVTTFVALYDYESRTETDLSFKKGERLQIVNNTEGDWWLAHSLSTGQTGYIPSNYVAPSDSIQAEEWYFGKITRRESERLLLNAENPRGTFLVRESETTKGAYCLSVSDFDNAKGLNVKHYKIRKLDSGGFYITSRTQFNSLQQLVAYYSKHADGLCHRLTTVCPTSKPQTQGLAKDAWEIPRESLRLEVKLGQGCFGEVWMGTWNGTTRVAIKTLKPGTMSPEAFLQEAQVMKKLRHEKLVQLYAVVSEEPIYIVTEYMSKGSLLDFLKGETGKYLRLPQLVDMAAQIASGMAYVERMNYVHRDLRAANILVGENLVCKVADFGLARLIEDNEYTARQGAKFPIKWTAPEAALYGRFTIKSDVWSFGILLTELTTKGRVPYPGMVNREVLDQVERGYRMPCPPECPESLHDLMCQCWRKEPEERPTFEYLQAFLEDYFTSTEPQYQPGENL
p38 MAPKα (MAPK14), sequence (Q16539 whole entry): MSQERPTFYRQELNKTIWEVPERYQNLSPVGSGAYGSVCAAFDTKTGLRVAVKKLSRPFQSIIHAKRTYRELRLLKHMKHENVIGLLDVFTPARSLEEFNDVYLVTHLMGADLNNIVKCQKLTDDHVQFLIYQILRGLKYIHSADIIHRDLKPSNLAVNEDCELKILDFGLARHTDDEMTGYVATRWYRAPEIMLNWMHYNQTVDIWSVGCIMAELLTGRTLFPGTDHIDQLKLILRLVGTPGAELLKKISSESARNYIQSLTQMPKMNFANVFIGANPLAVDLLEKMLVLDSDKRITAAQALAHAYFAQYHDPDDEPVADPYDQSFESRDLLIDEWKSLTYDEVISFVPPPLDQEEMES

By IC50 is commonly meant the concentration that gives 50% inhibition. For the compound `COCC(=O)Nc1cc(COc2ccc(NC(=O)Nc3cc(C(C)(C)C)nn3-c3ccc(C)cc3)c3ccccc23)ccn1` [Example 1, N-(4-((4-(3-(3-tert-Butyl-1-p-tolyl-1H-pyrazol-5-yl)ureido)naphthalen-1-yloxy)methyl)pyridin-2-yl)-2-methoxyacetamide], in series [1] (setting [7]), the IC50 stood at 6 nM. In addition, in series [2], the Lung viral load is recorded as 8.1 ± 1.9 pfu/g lung tissue (×10^6) and the “decrease in viral load versus vehicle controls” value is recorded as “approximately 80%”.

`CNC(=O)Nc1cc(COc2ccc(NC(=O)Nc3cc(C(C)(C)C)nn3-c3ccc(C)cc3)c3ccccc23)ccn1` [Example 2, Methyl 4-((4-(3-(3-tert-butyl-1-p-tolyl-1H-pyrazol-5-yl)ureido)naphthalen-1-yloxy)methyl)pyridin-2-ylurea]: the IC50 in series [3] came out at 2.8 nM; in series [4], 17 nM; in series [5] it was 45 nM; in series [1] (setting [8]), 11 nM.

Take `COCCNC(=O)CNC(=O)Nc1cc(COc2ccc(NC(=O)Nc3cc(C(C)(C)C)nn3-c3ccc(C)cc3)c3ccccc23)ccn1` [Example 15, 2-(3-(4-((4-(3-(3-tert-Butyl-1-p-tolyl-1H-pyrazol-5-yl)ureido)naphthalen-1-yloxy)methyl)pyridin-2-yl)ureido)-N-(2-methoxyethyl)acetamide]: the IC50 in series [4] was 65 nM; in series [5], 28 nM; in series [1] (setting [9]), more than 0.2 µg/mL. Also, the “MTT assay 4 hr” value in series [6] (4 hr) is recorded as “−ve (<30% = −ve)”. Also, the “MTT assay 24 hr” value in series [6] (24 hr) is “−ve (<30% = −ve)”.

Take `Cc1ccc(-n2nc(C(C)(C)C)cc2NC(=O)Nc2ccc(OCc3ccnc(NC(=O)CCCN(C)C)c3)c3ccccc23)cc1` [Example 16, N-(4-((4-(3-(3-tert-Butyl-1-p-tolyl-1H-pyrazol-5-yl)ureido)naphthalen-1-yloxy)methyl)pyridin-2-yl)-4-(dimethylamino)butanamide]: the IC50 in series [3] came to 10.3 nM; in series [4] it was 20 nM; in series [5] it was 28 nM; in series [1] (setting [8]), 166 nM.

Take `Cc1ccc(-n2nc(C(C)(C)C)cc2NC(=O)Nc2ccc(OCc3ccnc(NC(=O)CCS(C)(=O)=O)c3)c3ccccc23)cc1` [Example 17, N-(4-((4-(3-(3-tert-Butyl-1-p-tolyl-1H-pyrazol-5-yl)ureido)naphthalen-1-yloxy)methyl)pyridin-2-yl)-3-(methylsulfonyl)propanamide]: the IC50 worked out at 2.7 nM in series [3], 60 nM in series [4], 149 nM in series [5] and 64 nM in series [1] (setting [8]).

For the compound `Cc1ccc(-n2nc(C(C)(C)C)cc2NC(=O)Nc2ccc(OCc3ccnc(NC(=O)C[S+](C)[O-])c3)c3ccccc23)cc1` (stereo not shown) [Example 20, N-(4-((4-(3-(3-tert-Butyl-1-p-tolyl-1H-pyrazol-5-yl)ureido)naphthalen-1-yloxy)methyl)pyridin-2-yl)-2-(methylsulfinyl)acetamide], the IC50 worked out at 176 nM in series [4], 161 nM in series [5] and 486 nM in series [1] (setting [7]).

In the case of `Cc1ccc(-n2nc(C(C)(C)C)cc2NC(=O)Nc2ccc(OCc3ccnc(NC(=O)CS(=O)(=O)CCN4CCOCC4)c3)c3ccccc23)cc1` [Example 32, N-(4-((4-(3-(3-tert-Butyl-1-p-tolyl-1H-pyrazol-5-yl)ureido)naphthalen-1-yloxy)methyl)pyridin-2-yl)-2-(2-morpholinoethylsulfonyl)acetamide], the IC50 in series [3] is 1 nM; in series [4] it was 183 nM; in series [5] it was 111 nM; in series [1] (setting [9]) it was more than 0.04 µg/mL.

Take `CNC(=O)Nc1cnccc1COc1ccc(NC(=O)Nc2cc(C(C)(C)C)nn2-c2ccc(C)cc2)c2ccccc12` [Example 34, 1-(4-((3-Methylureidopyridin-4-yl)methoxy)naphthalen-1-yl)-3-(3-tert-butyl-1-p-tolyl-1H-pyrazol-5-yl)urea]: the IC50 in series [4] was 742 nM; in series [5], more than 17300 nM; in series [1] (setting [9]), more than 0.2 µg/mL.

Consider `COCCOCC(=O)Nc1cnccc1COc1ccc(NC(=O)Nc2cc(C(C)(C)C)nn2-c2ccc(C)cc2)c2ccccc12` [Example 36, N-(4-((4-(3-(3-tert-Butyl-1-p-tolyl-1H-pyrazol-5-yl)ureido)naphthalen-1-yloxy)methyl)pyridin-3-yl)-2-(2-methoxyethoxy)acetamide], for which the IC50 is more than 1570 nM in series [4]; 9330 nM in series [5]; more than 0.2 µg/mL in series [1] (MDCK, read-out: IC50 (nM) Influenza-Induced CPE).

Turning to `Cc1ccc(-n2nc(C(C)(C)C)cc2NC(=O)Nc2ccc(OCCc3ccnc(NC(N)=O)c3)c3ccccc23)cc1` [Example 40, 4-(2-(4-(3-(3-tert-Butyl-1-p-tolyl-1H-pyrazol-5-yl)ureido)naphthalen-1-yloxy)ethyl)-3-(pyridin-2-yl)urea], the half-inhibitory concentration (IC50) in series [4] is 276 nM; in series [5] it was more than 17300 nM; in series [1] (setting [7]) it was 97 nM.

In the case of `COCC(=O)Nc1cc(COc2ccc(NC(=O)Nc3cc(C(C)(C)C)nn3-c3ccc(CO)cc3)c3ccccc23)ccn1` [Example 49, N-(4-((4-(3-(3-tert-Butyl-1-(4-(hydroxymethyl)phenyl)-1H-pyrazol-5-yl)ureido)naphthalen-1-yloxy)methyl)pyridin-2-yl)-2-methoxyacetamide], the IC50 in series [3] worked out at 5 nM; in series [4], 24 nM; in series [5] it was 155 nM; in series [1] (setting [8]), 32 nM.
